{"source": "patent US20250352520A1", "about": "“USE OF DEXPRAMIPEXOLE FOR THE TREATMENT OF EOSINOPHILIC COPD” (Areteia Therapeutics, Inc., priority 2024, published 2025)", "settings": "Week 8; >=50% AEC reduction at Week 16"}
{"smiles": "CCCN[C@@H]1CCc2nc(N)sc2C1", "note": "[Dexpramipexole, (6R)-2-amino-4,5,6,7-tetrahydro-6-(propylamino)benzothiazole]", "values": [{"measurement": "Pre-BD FEF25-75 % change from baseline, Max", "result": 38, "unit": "%"}, {"measurement": "Pre-BD FEF25-75 % change from baseline, Mean ± SD", "result": "10.2 ± 27.88", "unit": "%"}, {"measurement": "Pre-BD FEF25-75 % change from baseline, Median", "result": 9.5, "unit": "%"}, {"measurement": "Pre-BD FEF25-75 % change from baseline, Min", "result": "−17", "unit": "%"}, {"measurement": "Pre-BD FEF25-75 % change from baseline, Q1", "result": "−17", "unit": "%"}, {"measurement": "Pre-BD FEF25-75 % change from baseline, Q3", "result": 38, "unit": "%"}, {"measurement": "Pre-BD FEF25-75 Observed, Max", "result": 1010, "unit": "mL/s"}, {"measurement": "Pre-BD FEF25-75 Observed, Mean ± SD", "result": "666.7 ± 398.29", "unit": "mL/s"}, {"measurement": "Pre-BD FEF25-75 Observed, Median", "result": 760.0, "unit": "mL/s"}, {"measurement": "Pre-BD FEF25-75 Observed, Min", "result": 230, "unit": "mL/s"}, {"measurement": "Pre-BD FEF25-75 Observed, Q1", "result": 230, "unit": "mL/s"}, {"measurement": "Pre-BD FEF25-75 Observed, Q3", "result": 1010, "unit": "mL/s"}, {"measurement": "Pre-BD FEF25-75 change from baseline, Max", "result": 280, "unit": "mL/s"}, {"measurement": "Pre-BD FEF25-75 change from baseline, Mean ± SD", "result": "46.7 ± 221.21", "unit": "mL/s"}, {"measurement": "Pre-BD FEF25-75 change from baseline, Median", "result": 20.0, "unit": "mL/s"}, {"measurement": "Pre-BD FEF25-75 change from baseline, Min", "result": -160, "unit": "mL/s"}, {"measurement": "Pre-BD FEF25-75 change from baseline, Q1", "result": -160, "unit": "mL/s"}, {"measurement": "Pre-BD FEF25-75 change from baseline, Q3", "result": 280, "unit": "mL/s"}, {"measurement": "Pre-BD FEV1 % change from baseline, Max", "result": 53, "unit": "%"}, {"measurement": "Pre-BD FEV1 % change from baseline, Mean ± SD", "result": "18.7 ± 30.56", "unit": "%"}, {"measurement": "Pre-BD FEV1 % change from baseline, Median", "result": 8.3, "unit": "%"}, {"measurement": "Pre-BD FEV1 % change from baseline, Min", "result": "−5", "unit": "%"}, {"measurement": "Pre-BD FEV1 % change from baseline, Q1", "result": "−5", "unit": "%"}, {"measurement": "Pre-BD FEV1 % change from baseline, Q3", "result": 53, "unit": "%"}, {"measurement": "Pre-BD FEV1 Observed, Max", "result": 1990, "unit": "mL"}, {"measurement": "Pre-BD FEV1 Observed, Mean ± SD", "result": "1453.3 ± 616.47", "unit": "mL"}, {"measurement": "Pre-BD FEV1 Observed, Median", "result": 1590.0, "unit": "mL"}, {"measurement": "Pre-BD FEV1 Observed, Min", "result": 780, "unit": "mL"}, {"measurement": "Pre-BD FEV1 Observed, Q1", "result": 780, "unit": "mL"}, {"measurement": "Pre-BD FEV1 Observed, Q3", "result": 1990, "unit": "mL"}, {"measurement": "Pre-BD FEV1 change from baseline, Max", "result": 690, "unit": "mL"}, {"measurement": "Pre-BD FEV1 change from baseline, Mean ± SD", "result": "220.0 ± 413.88", "unit": "mL"}, {"measurement": "Pre-BD FEV1 change from baseline, Median", "result": 60.0, "unit": "mL"}, {"measurement": "Pre-BD FEV1 change from baseline, Min", "result": -90, "unit": "mL"}, {"measurement": "Pre-BD FEV1 change from baseline, Q1", "result": -90, "unit": "mL"}, {"measurement": "Pre-BD FEV1 change from baseline, Q3", "result": 690, "unit": "mL"}, {"measurement": "Pre-BD FVC % change from baseline, Max", "result": 24, "unit": "%"}, {"measurement": "Pre-BD FVC % change from baseline, Mean ± SD", "result": "8.8 ± 13.54", "unit": "%"}, {"measurement": "Pre-BD FVC % change from baseline, Median", "result": 3.3, "unit": "%"}, {"measurement": "Pre-BD FVC % change from baseline, Min", "result": "−1", "unit": "%"}, {"measurement": "Pre-BD FVC % change from baseline, Q1", "result": "−1", "unit": "%"}, {"measurement": "Pre-BD FVC % change from baseline, Q3", "result": 24, "unit": "%"}, {"measurement": "Pre-BD FVC Observed, Max", "result": 3130, "unit": "mL"}, {"measurement": "Pre-BD FVC Observed, Mean ± SD", "result": "2626.7 ± 477.53", "unit": "mL"}, {"measurement": "Pre-BD FVC Observed, Median", "result": 2570.0, "unit": "mL"}, {"measurement": "Pre-BD FVC Observed, Min", "result": 2180, "unit": "mL"}, {"measurement": "Pre-BD FVC Observed, Q1", "result": 2180, "unit": "mL"}, {"measurement": "Pre-BD FVC Observed, Q3", "result": 3130, "unit": "mL"}, {"measurement": "Pre-BD FVC change from baseline, Max", "result": 610, "unit": "mL"}, {"measurement": "Pre-BD FVC change from baseline, Mean ± SD", "result": "216.7 ± 344.29", "unit": "mL"}, {"measurement": "Pre-BD FVC change from baseline, Median", "result": 70.0, "unit": "mL"}, {"measurement": "Pre-BD FVC change from baseline, Min", "result": -30, "unit": "mL"}, {"measurement": "Pre-BD FVC change from baseline, Q1", "result": -30, "unit": "mL"}, {"measurement": "Pre-BD FVC change from baseline, Q3", "result": 610, "unit": "mL"}, {"measurement": "Pre-BD Peak Flow % change from baseline, Max", "result": 90, "unit": "%"}, {"measurement": "Pre-BD Peak Flow % change from baseline, Mean ± SD", "result": "25.2 ± 58.36", "unit": "%"}, {"measurement": "Pre-BD Peak Flow % change from baseline, Median", "result": 9.6, "unit": "%"}, {"measurement": "Pre-BD Peak Flow % change from baseline, Min", "result": "−24", "unit": "%"}, {"measurement": "Pre-BD Peak Flow % change from baseline, Q1", "result": "−24", "unit": "%"}, {"measurement": "Pre-BD Peak Flow % change from baseline, Q3", "result": 90, "unit": "%"}, {"measurement": "Pre-BD Peak Flow Observed, Max", "result": 298, "unit": "L/min"}, {"measurement": "Pre-BD Peak Flow Observed, Mean ± SD", "result": "197.7 ± 87.79", "unit": "L/min"}, {"measurement": "Pre-BD Peak Flow Observed, Median", "result": 160.0, "unit": "L/min"}, {"measurement": "Pre-BD Peak Flow Observed, Min", "result": 135, "unit": "L/min"}, {"measurement": "Pre-BD Peak Flow Observed, Q1", "result": 135, "unit": "L/min"}, {"measurement": "Pre-BD Peak Flow Observed, Q3", "result": 298, "unit": "L/min"}, {"measurement": "Pre-BD Peak Flow change from baseline, Max", "result": 141, "unit": "L/min"}, {"measurement": "Pre-BD Peak Flow change from baseline, Mean ± SD", "result": "37.7 ± 93.77", "unit": "L/min"}, {"measurement": "Pre-BD Peak Flow change from baseline, Median", "result": 14.0, "unit": "L/min"}, {"measurement": "Pre-BD Peak Flow change from baseline, Min", "result": -42, "unit": "L/min"}, {"measurement": "Pre-BD Peak Flow change from baseline, Q1", "result": -42, "unit": "L/min"}, {"measurement": "Pre-BD Peak Flow change from baseline, Q3", "result": 141, "unit": "L/min"}]}
